Assay results taken from the supplement of paper PMC10307832.

Legend:
Assay in all cases: relative viability (nuclei count vs DMSO), 5 days (fraction); higher = more cells survive
[1] = compound: COc1cc2nc(N3CCCN(C)CC3)nc(NC3CCN(Cc4ccccc4)CC3)c2cc1OC + Cc1cc(Nc2cc(N3CCN(C)CC3)nc(Sc3ccc(NC(=O)C4CC4)cc3)n2)n[nH]1 [Tozasertib] (partner 0.1 µM)
Procedure, shortened: (§1)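 Lung cancer cell lines in 1536-well plates were dosed by pin tool the day after seeding, either with one drug alone or with a fixed anchor-drug dose plus five library-drug doses (not always all listed) in √10 steps. After 5 days, cells were fixed and their nuclei stained in one step (final 0.05% Triton X-100, 1% formaldehyde, 1 ug/ml Hoechst), then counted on 4× images. Relative viability is the nuclei count in treated wells divided by that in vehicle wells. Values are medians of duplicate plates.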

AZD6482 + Bortezomib = compound: Cc1cc([C@@H](C)Nc2ccccc2C(=O)O)c2nc(N3CCOCC3)cc(=O)n2c1 [AZD6482] + CC(C)C[C@H](NC(=O)[C@H](Cc1ccccc1)NC(=O)c1cnccn1)B(O)O [Bortezomib] (partner 0.002 µM)
Procedure, shortened: as §1

AZD6482 + Foretinib = compound: Cc1cc([C@@H](C)Nc2ccccc2C(=O)O)c2nc(N3CCOCC3)cc(=O)n2c1 [AZD6482] + COc1cc2c(Oc3ccc(NC(=O)C4(C(=O)Nc5ccc(F)cc5)CC4)cc3F)ccnc2cc1OCCCN1CCOCC1 [Foretinib] (partner 0.25 µM)
Procedure, shortened: as §1

AZD6482 + Linsitinib = compound: Cc1cc([C@@H](C)Nc2ccccc2C(=O)O)c2nc(N3CCOCC3)cc(=O)n2c1 [AZD6482] + C[C@]1(O)C[C@@H](c2nc(-c3ccc4ccc(-c5ccccc5)nc4c3)c3c(N)nccn32)C1 [Linsitinib] (partner 1 µM)
Procedure, shortened: as §1

Cell Line | relative viability ([1]; first compound 0.2 µM) | relative viability ([1]; first compound 0.6325 µM) | relative viability ([1]; first compound 2 µM) | relative viability ([1]; first compound 6.325 µM) | relative viability (AZD6482 + Bortezomib; first compound 0.08 µM) | relative viability (AZD6482 + Bortezomib; first compound 0.253 µM) | relative viability (AZD6482 + Bortezomib; first compound 0.8 µM) | relative viability (AZD6482 + Bortezomib; first compound 2.53 µM) | relative viability (AZD6482 + Bortezomib; first compound 8 µM) | relative viability (AZD6482 + Foretinib; first compound 0.08 µM) | relative viability (AZD6482 + Foretinib; first compound 0.253 µM) | relative viability (AZD6482 + Foretinib; first compound 0.8 µM) | relative viability (AZD6482 + Foretinib; first compound 2.53 µM) | relative viability (AZD6482 + Foretinib; first compound 8 µM) | relative viability (AZD6482 + Linsitinib; first compound 0.08 µM) | relative viability (AZD6482 + Linsitinib; first compound 0.253 µM) | relative viability (AZD6482 + Linsitinib; first compound 0.8 µM) | relative viability (AZD6482 + Linsitinib; first compound 2.53 µM) | relative viability (AZD6482 + Linsitinib; first compound 8 µM)
201T | 0.973 | 0.908 | 0.946 | 0.924 | 1.08 | 1.08 | 1.14 | 0.891 | 1.11 | 1.07 | 1.01 | 1.11 | 0.734 | 1.08 | 1.03 | 0.969 | 1.01 | 0.808 | 0.867
A549 | – | – | – | – | – | – | – | – | – | 0.898 | 0.842 | 0.979 | 0.596 | 0.743 | 0.478 | 0.347 | 0.466 | – | 0.432
Calu-6 | – | – | – | – | 0.889 | 0.973 | 0.978 | 0.823 | 0.889 | 0.789 | 0.815 | 0.9 | 0.644 | 0.765 | 0.726 | 0.889 | 0.89 | 0.701 | 0.899
ChaGo-K-1 | 0.206 | 0.218 | 0.219 | 0.244 | 1.09 | – | 1.14 | 0.981 | 1.27 | 0.973 | 0.863 | 0.833 | 0.894 | 0.968 | – | – | – | – | –
EBC-1 | – | – | – | – | 0.498 | 0.532 | 0.463 | 0.358 | 0.381 | 0.102 | 0.104 | 0.124 | 0.0931 | 0.115 | 0.559 | 0.76 | 0.788 | 0.348 | 0.408
HCC-44 | 0.973 | 0.922 | 1.25 | 1.22 | 0.799 | 1.01 | 0.975 | 1.04 | 0.88 | – | – | – | – | – | 0.413 | 0.527 | 0.429 | 0.539 | 0.362
IA-LM | – | – | – | – | 1.11 | 0.876 | 0.953 | 0.416 | 0.496 | 1.18 | 1.2 | 1.52 | – | 1.09 | 0.861 | 0.732 | 0.786 | – | 0.969
LK-2 | 0.199 | 0.178 | 0.187 | 0.19 | – | – | – | – | – | 1.3 | 1.08 | 1.22 | 0.822 | 0.948 | 0.587 | 0.521 | 0.791 | 0.513 | 0.421
NCI-H358 | 0.108 | 0.111 | 0.123 | 0.126 | – | – | – | – | – | 0.484 | 0.706 | 0.679 | 0.407 | 0.489 | 0.545 | 0.795 | 0.679 | 0.293 | 0.528
NCI-H522 | 0.573 | 0.671 | 0.547 | 0.606 | – | – | – | – | – | – | – | – | – | – | – | – | – | – | –
NCI-H1299 | – | – | – | – | 0.916 | 1.03 | 1.11 | 0.957 | 1.1 | 1.06 | 1.13 | 1.31 | 1.11 | 1.12 | 0.907 | 1.03 | 1.11 | 0.803 | 1.17
NCI-H1395 | 0.784 | 0.705 | 0.835 | 0.81 | – | – | – | – | – | 0.757 | 0.663 | 0.687 | 0.518 | 0.555 | 0.879 | 0.639 | 0.661 | 0.436 | 0.732
NCI-H1563 | – | – | – | – | 0.75 | 0.828 | 0.818 | 0.673 | 0.68 | 0.89 | 0.875 | 0.908 | 0.765 | 0.652 | 1.02 | 0.951 | 0.908 | 0.843 | 0.759
NCI-H1648 | 0.491 | 0.527 | 0.508 | 0.538 | – | – | – | – | – | – | – | – | – | – | – | – | – | – | –
NCI-H1650 | 0.482 | 0.483 | 0.576 | 0.49 | 0.192 | – | 0.188 | 0.205 | 0.202 | 0.902 | 0.937 | 0.933 | 0.738 | 0.684 | – | – | – | – | –
NCI-H1703 | – | – | – | – | 0.377 | 0.301 | 0.331 | 0.191 | 0.238 | 0.266 | 0.414 | 0.322 | 0.259 | 0.259 | 1.01 | 0.398 | 0.478 | 0.249 | 0.47
NCI-H1792 | – | – | – | – | 0.856 | 0.859 | 0.991 | 0.677 | 0.483 | – | – | – | – | – | 0.313 | 0.41 | 0.501 | 0.319 | 0.271
NCI-H1793 | 0.338 | 0.386 | 0.359 | 0.322 | – | – | – | – | – | 0.575 | 0.431 | 0.507 | 0.3 | 0.322 | 0.325 | 0.503 | 0.615 | – | 0.46
NCI-H1944 | 0.248 | 0.277 | 0.268 | 0.28 | – | – | – | – | – | 0.866 | 0.892 | 0.872 | 0.686 | 0.697 | 0.929 | 0.834 | 0.922 | 0.688 | 0.622
NCI-H2170 | 0.696 | 0.703 | 0.788 | 0.752 | – | – | – | – | – | 0.977 | 1 | 0.955 | 0.922 | 0.785 | – | – | – | – | –
NCI-H2342 | 0.503 | 0.659 | 0.57 | 0.511 | – | – | – | – | – | 0.927 | 0.891 | 0.987 | 0.614 | 0.653 | – | – | – | – | –
SK-MES-1 | 0.882 | 0.912 | 0.852 | 0.1 | – | – | – | – | – | 0.519 | 0.783 | 0.565 | 0.422 | 0.403 | 0.873 | 1.01 | 0.608 | 0.394 | 0.393
SW 900 | 0.509 | 0.539 | 0.585 | 0.548 | – | – | – | – | – | 0.751 | 0.753 | 0.773 | – | 0.792 | – | – | – | – | –
